Read-outs that look alike come from different tables or passages of the source.
Key:
Type in all cases: physicochemical
[1] = Physical solid stability (powder X-ray diffraction and DSC); settings: 70° C., plugged up, uncontrolled humidity, two weeks
Experimental: With respect to solid state stability of the crystals of the present invention, physical/chemical stability under temperature and humidity conditions, and chemical stability in a light irradiation state were evaluated. The physical stability was evaluated by the powder X-ray diffraction and the differential scanning calorimetry analysis (DSC) (under the above-described measurement conditions). The chemical stability was evaluated by HPLC (related substance test and optical isomer separating test), and represented by the ratio (%) of generated impurities.
(Solid State Stability, Temperature)
In an Incubator IC-450A (manufactured by AS ONE Corporation) set as 70° C., a sample was plugged up and stored under the uncontrolled humidity environment for two weeks.
(Solid State Stability, Temperature/Humidity)

[2] = Solubility in JP1, JP2, JP2+TC, FaSSIF, FeSSIF (shaking 10 minutes at room temperature, HPLC); settings: 10 minutes shaking
Experimental: 0.5 mg to 1 mg of a sample was weighed in 10 mL of a centrifuge tube, and respective solutions (see below) were added thereto such that the amount thereof became approximately 150 μg/mL. In order to disperse the sample uniformly, the solution was sonicated in a water bath for a short period of time, followed by shaking at room temperature for 10 minutes using a shaker SA31 (manufactured by Yamato Scientific Co., Ltd.). The solution after being shaken was filtered with a filter, and the concentration of the compound in the filtrate was determined by HPLC. The following solutions were used.
JP1 (first solution of Japanese Pharmacopoeia Disintegration Test): 2.0 g of sodium chloride was dissolved in 7.0 mL of hydrochloric acid and water and the amount thereof was set to 1000 mL (pH: approximately 1.2).
JP2 (second solution of Japanese Pharmacopoeia Disintegration Test): 118 mL of 0.2 mol/L sodium hydroxide test solution and water were added to 250 mL of 0.2 mol/L potassium dihydrogen phosphate test solution and the amount thereof was set to 1000 mL (pH: approximately 6.8).
JP2+bile acid (JP2+TC): sodium taurocholic acid was added to the second solution of Japanese Pharmacopoeia Disintegration Test such that the amount thereof became 15 mmol/L.
FaSSIF (simulated intestinal fluid (fasted state)): 3 mmol/L of sodium taurochloric acid, 0.75 mmol/L of lecithin, 3.9 g of potassium dihydrogen phosphate, and 7.7 g of potassium chloride were added to 1 L of water and the pH thereof was adjusted to approximately 6.5 using sodium hydroxide.
FeSSIF (simulated intestinal fluid (fed state)): 15 mmol/L of sodium taurochloric acid, 3.75 mmol/L of lecithin, 8.65 g of acetic acid, and 15.2 g of potassium chloride were added to 1 L of water and the pH thereof was adjusted to approximately 5.0 using sodium hydroxide.
Device: LC1100 (manufactured by Agilent Technologies)
Mobile phase: A: 0.01 mol/L aqueous ammonium acetate solution, B: 0.01 mol/L ammonium acetate methanol solution
Column: Developsil Combi-RP-5.5 μm (2.1 mm×50 mm)
Column temperature: 40° C.
Detection wavelength: 254 nm

[3] = Hygroscopicity test (VTI SGA-100); settings: 25° C., 5% to 95% relative humidity
Experimental: Measurement of the hygroscopicity of the crystals of the present invention was performed by using VTI SGA-100 under the conditions of temperature: 25° C., measurement range: 5% to 95% relative humidity, and measurement interval: 5% relative humidity.

[4] = FaSSIF (simulated intestinal fluid, pH 6.5), FaSSIF (fasted state), pH approximately 6.5, room temperature, read-out: Solubility FaSSIF
[5] = FeSSIF (simulated intestinal fluid, pH 5), FeSSIF (fed state), pH approximately 5.0, room temperature, read-out: Solubility FeSSIF
[6] = JP2+TC (JP2 + bile acid), JP2 + 15 mmol/L sodium taurocholic acid, room temperature, read-out: Solubility JP2 + TC
[7] = pH 1.2, JP1, pH approximately 1.2, room temperature, read-out: Solubility JP1
[8] = pH 6.8, JP2, pH approximately 6.8, room temperature, read-out: Solubility JP2

With `Br.C[C@@H]1CN(c2ccc(C#N)c(Cl)c2)[C@@H](C)CN1C(=O)Nc1cnc(C2CC2)nc1` [(2R,5S)-4-(3-chloro-4-cyanophenyl)-N-(2-cyclopropylpyrimidin-5-yl)-2,5-dimethylpiperazine-1-carboxamide hydrobromide] the “Physical solid stability, temperature” value [1] was “Stable to the temperature”, the solubility at 10 minutes [2, 4] was 41 µg/mL and the solubility at 10 minutes [2, 5] was 94.9 µg/mL. For the same compound, the solubility at 10 minutes [2, 6] was greater than 80.6 µg/mL, the solubility at 10 minutes [2, 7] was 12.3 µg/mL and the solubility at 10 minutes [2, 8] was 19.8 µg/mL. For the same compound, the Hygroscopicity [3] was 0.1% or less.
For `C[C@@H]1CN(c2ccc(C#N)c(Cl)c2)[C@@H](C)CN1C(=O)Nc1cnc(C2CC2)nc1.Cl` [(2R,5S)-4-(3-chloro-4-cyanophenyl)-N-(2-cyclopropylpyrimidin-5-yl)-2,5-dimethylpiperazine-1-carboxamide hydrochloride], the “Physical solid stability, temperature” value [1] was “Stable to the temperature”, the solubility at 10 minutes [2, 4] was 39.4 µg/mL and the solubility at 10 minutes [2, 5] was greater than 100 µg/mL. It also gave a solubility at 10 minutes [2, 6] of 92.8 µg/mL, a solubility at 10 minutes [2, 7] of 9.7 µg/mL and a solubility at 10 minutes [2, 8] of 10.1 µg/mL. It also gave a Hygroscopicity [3] of roughly 1.4%.
Work on `CS(=O)(=O)O.C[C@@H]1CN(c2ccc(C#N)c(Cl)c2)[C@@H](C)CN1C(=O)Nc1cnc(C2CC2)nc1` [(2R,5S)-4-(3-chloro-4-cyanophenyl)-N-(2-cyclopropylpyrimidin-5-yl)-2,5-dimethylpiperazine-1-carboxamide methanesulfonate] yielded a solubility at 10 minutes [2, 4] of 47.2 µg/mL, a solubility at 10 minutes [2, 5] greater than 100 µg/mL and a solubility at 10 minutes [2, 6] greater than 100 µg/mL. The solubility at 10 minutes [2, 7] was greater than 100 µg/mL, the solubility at 10 minutes [2, 8] was 20.6 µg/mL and the Hygroscopicity [3] was roughly 5%.
With `C[C@@H]1CN(c2ccc(C#N)c(Cl)c2)[C@@H](C)CN1C(=O)Nc1cnc(C2CC2)nc1.O` [(2R,5S)-4-(3-chloro-4-cyanophenyl)-N-(2-cyclopropylpyrimidin-5-yl)-2,5-dimethylpiperazine-1-carboxamide monohydrate] the “Physical solid stability, temperature” value [1] was “Stable to the temperature”, the solubility at 10 minutes [2, 4] was 4.4 µg/mL and the solubility at 10 minutes [2, 5] was 17.7 µg/mL. The solubility at 10 minutes [2, 6] was 8.8 µg/mL, the solubility at 10 minutes [2, 7] was 21.8 µg/mL and the solubility at 10 minutes [2, 8] was 1.6 µg/mL. For the same compound, the Hygroscopicity [3] was 0.1% or less.

Reference: US20140275105A1, “CRYSTAL OF ANDROGEN RECEPTOR AN[…]” (Astellas Pharma Inc., priority 2011, published 2014)
